For one series, the system named is E. coli ATCC BAA-2523. In words: MIC by broth microdilution, β-lactam-resistant strain producing OXA-48. Type of series: cell-based, Escherichia coli. Conditions: Escherichia coli, ATCCBAA2523, no β-lactam, BLI tested at 32 µg/mL, read-out: MIC, BLI alone. An excerpt: (§1) To evaluate the capability of restoring β-lactam susceptibility, the two most promising representatives of SC_2 (ID3) and SC_7 (ID2) were screened alone and in combination with ampicillin (AMP) and IMP against sensitive and resistant Gram-negative bacteria. Avibactam and tazobactam were also included in the MIC characterization as BLI reference compounds. Specifically, we used E. coli ATCC25922 as antibiotic-sensitive strain, while E. coli ATCC BAA-2523 and K. pneumoniae ATCC BAA-2524 as β-lactam-resistant bacteria, producing OXA-48 carbapenemase.
(§2) Test compounds and tazobactam were tested at 32 µg/mL, while avibactam was applied at 4 µg/mL. […] Both antibiotics were selected for the combination study as they can be hydrolyzed by the target OXA-48 enzyme.
(§3) MIC values were determined by the broth dilution method and interpreted using published guidelines described by Clinical and Laboratory Standards Institute (CLSI).
(§4) All BLIs were dissolved in 100% DMSO and they were tested at a fixed concentration of 32 µg/mL and 1% of DMSO final concentration. Avibactam was used as reference β-lactamase inhibitor. All antimicrobials were prepared in line with CLSI susceptibility testing standards. AMP (USP # 1033000; batch no. K1M493) was dissolved at 5.12 mg/mL, IMP (USP # 1337809; batch no. R038R0) and avibactam (Biochem # NXL 104; batch no. 20180726) were dissolved at 1.28 mg/mL in the respective solvents recommended by CLSI (2). Solutions at 4X the final concentrations of the test range were made in Cation adjusted Mueller-Hinton broth (CA-MHB, BD # 212322; batch no. 6117994; Expiry date: 29.02.2020) by serial dilutions, and then diluted 2-fold with CA-MHB (for antimicrobials alone), or with the BLIs/avibactam (for combinations of new/reference inhibitors and antimicrobials). Moreover, all BLIs were tested alone at a fixed concentration of 32 μg/mL. The final concentration of DMSO in the test tubes was 1% for each different combination.
(§5) 50 μL of each well were then transferred from the masterblock into 96-well plates to whom were then added 50 μL of the final inoculum. MIC tests were performed by broth microdilution in line with CLSI susceptibility testing standards. Bacterial inocula were prepared at ca. 1 × 10^6 CFU/mL by diluting 100-fold a 0.5 McFarland suspension in CA-MHB with TES (TREK Diagnostic Systems, Product code: T3462; Batch: 356347; Expiry date: 12-Jun-2019). 50 μL of antibacterial solutions at 2 × the final concentrations were diluted 2-fold with 50 μL of inoculum to give a final inoculum of ca. 5 × 10^5 CFU/mL and desired test concentrations of antibacterial agents. Test plates were incubated according to CLSI guidelines and read visually. MIC values corresponded to the first well with no visible growth.
On the technique in general: Dilution methods test growth across graded concentrations, often in twofold steps.

Series [1] in a line: Aqueous solubility assay (PBS, pH 7.4). In kind it is physicochemical. The note with it: isotonic buffer pH 7.4, aqueous buffer, kinetic from dmso stock, buffered aqueous solution at pH 7.4, 200 μM nominal, 2% DMSO, room temperature. The protocol: (§6) Based on the promising BLI profile of compound ID2, a preliminary in vitro ADMET assessment in terms of kinetic solubility and cytotoxicity was carried out. […] Also, it was tested for cell viability in dose response against HepG2 cells, following 48 h incubation time.
Compound was dissolved in DMSO as stock solution and then added to isotonic buffer (pH 7.4) at a concentration of 200 μM (2% DMSO final concentration). After a 24 h incubation under shaking at room temperature, dissolved compound is measured by a chromatographic procedure with photodiode array detection. Metoprolol tartrate, rifampicin, ketoconazole, phenytoin, haloperidol, simvastatin, diethylstilbestrol, and tamoxifen were used as reference compounds for different solubility degrees.

The next series concerns E. coli ATCC25922. As to the kind of experiment: MIC by broth microdilution, antibiotic-sensitive strain. In kind it is cell-based. The note with it: Escherichia coli, no β-lactam, BLI tested at 32 µg/mL, read-out: MIC, BLI alone.
Description: as §1, §2, §3, §4, §5

The next series concerns HepG2 cells. As to the kind of experiment: Cytotoxicity assay (cell viability, alamarBlue). Type of series: cell-based. Conditions: 48 h incubation, dose response. The protocol:
as §6
Compound ID2 was tested in cell viability assays with HepG2 cells. The viability of cultured cells was evaluated using alamarBlue staining as described by Nociari et al.. Concentration–response curves were prepared for each compound by testing eight concentrations in triplicate with three-fold dilutions starting from 100 µM to […]. After incubation for 48 h at 37 °C, the percentage of control activity was calculated by comparing the fluorescence reading in the presence of the test compound to that in the absence of a test compound (control). IC50 values were determined by non-linear regression analysis of the concentration–response curves. These parameters were obtained by Hill equation curve fitting. Chlorpromazine was used as a reference compound.
For orientation: The colour change of resazurin is a common sign of viable cells or microbes.

Converted amounts (≈) assume the structure as drawn.

The MIC is the least concentration at which growth counts as inhibited. Turning to `C[C@]1(Cn2ccnn2)[C@H](C(=O)O)N2C(=O)C[C@H]2S1(=O)=O` [tazobactam, reference compound], the minimal inhibitory concentration (MIC) in the series with E. coli ATCC BAA-2523 was above 32 µg/mL.
As usually defined, the solubility (kinetic) is solubility judged after dilution from a stock solution rather than from solid. For `CCc1ccc(-c2n[nH]c3nc(-c4ccc(C(=O)O)cc4)cc(C(=O)O)c23)cc1` [ID2], the kinetic solubility at 24 h in series [1] stood at 179 µM (≈ 69.5 µg/mL). Moreover, the MIC in the series on E. coli ATCC25922 and in the series on E. coli ATCC BAA-2523 was above 32 µg/mL each time. In addition, the “cytotoxicity (no sign of toxicity up to the highest tested concentration)” value in the series on HepG2 cells is listed as above 100 µM.
